According to paper PMC5292991, “Drug trapping in hERG K^+ channels: (not) a matter of drug size?” (Medchemcomm, 2015):

Molecular target: T1, hERG K+ channel (Kv11.1) (Homo sapiens, UniProt Q12809)
T1 construct: gene KCNH2
Test: two-microelectrode voltage clamp, hERG tail current inhibition in Xenopus oocytes; alanine mutants Y652A and F656A reduce block
Assay type: cell-based

T1 sequence (Q12809 whole entry): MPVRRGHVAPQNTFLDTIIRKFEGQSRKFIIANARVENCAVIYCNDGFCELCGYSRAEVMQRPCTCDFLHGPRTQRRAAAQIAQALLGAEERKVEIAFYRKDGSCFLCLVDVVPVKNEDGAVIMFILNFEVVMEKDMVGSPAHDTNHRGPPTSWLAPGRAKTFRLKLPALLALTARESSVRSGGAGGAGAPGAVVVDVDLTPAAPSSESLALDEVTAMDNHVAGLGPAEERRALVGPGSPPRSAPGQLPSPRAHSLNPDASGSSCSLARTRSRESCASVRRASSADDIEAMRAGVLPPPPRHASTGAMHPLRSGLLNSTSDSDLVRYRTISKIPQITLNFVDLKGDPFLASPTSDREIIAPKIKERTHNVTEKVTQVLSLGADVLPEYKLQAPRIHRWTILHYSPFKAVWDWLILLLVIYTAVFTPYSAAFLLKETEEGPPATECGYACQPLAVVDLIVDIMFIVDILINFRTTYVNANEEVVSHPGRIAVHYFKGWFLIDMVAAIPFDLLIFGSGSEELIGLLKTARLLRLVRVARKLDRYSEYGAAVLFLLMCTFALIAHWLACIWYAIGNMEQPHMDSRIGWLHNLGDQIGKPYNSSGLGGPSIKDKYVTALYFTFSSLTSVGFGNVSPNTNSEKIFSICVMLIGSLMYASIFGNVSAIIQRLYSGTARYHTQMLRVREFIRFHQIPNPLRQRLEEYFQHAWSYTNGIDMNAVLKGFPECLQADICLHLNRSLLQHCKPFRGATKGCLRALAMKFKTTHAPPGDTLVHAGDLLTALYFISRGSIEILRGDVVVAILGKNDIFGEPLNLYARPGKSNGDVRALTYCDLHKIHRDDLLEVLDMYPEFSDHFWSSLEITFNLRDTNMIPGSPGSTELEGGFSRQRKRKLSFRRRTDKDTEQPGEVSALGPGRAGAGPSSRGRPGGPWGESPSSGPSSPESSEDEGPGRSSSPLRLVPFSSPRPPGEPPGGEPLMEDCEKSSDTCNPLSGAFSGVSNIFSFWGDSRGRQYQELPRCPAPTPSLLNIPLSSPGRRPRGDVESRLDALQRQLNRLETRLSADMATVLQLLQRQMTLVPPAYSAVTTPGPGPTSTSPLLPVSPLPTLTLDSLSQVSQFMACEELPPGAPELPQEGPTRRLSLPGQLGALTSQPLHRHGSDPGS

Compound: O=C(CCc1ccccc1)c1ccccc1OCC(O)CN1CCN(C(c2ccccc2)(c2ccccc2)c2ccccc2)CC1 (stereo not shown) [FB213, 1-[2-(2-hydroxy-3-(4-tritylpiperazin-1-yl)-propoxy)phenyl]-3-phenylpropan-1-one]
- IC50: 47.1 ± 5.1 µM
